From PMC8272044, “5-Phenoxy Primaquine Analogs and the Tetraoxane Hybrid as Antimalarial Agents” (Molecules, 2021)
Read-outs that look alike come from different tables or passages of the source.

Legend:
P. falciparum 3D7 = experiment: In vitro blood antimalarial activity, malaria SYBR green I-based fluorescence (MSF) method; type: cell-based; details: Plasmodium falciparum; P. falciparum 3D7, blood stage, 48 h, mean ± SD of three biological repeats
Procedure: P. falciparum strain 3D7 (wild-type drug sensitive strain) was used in this study. This parasite was maintained continuously in vitro in human O+ erythrocytes (4% hematocrit) at 37 °C under 3% CO2 and 90% N2 in RPMI 1640 culture media (Life Technologies Limited, Paisley, UK) containing 2 mM L-Glutamine, 25 mM HEPES (Sigma), pH 7.4, 2g/L NaHCO3, 40 mg/L gentamicin, 0.37 mM hypoxanthine, and supplemented with 5 g/L Albumax I (Life Technologies, Grand Island, NY, USA). Every 3 to 4 days, the parasite culture was synchronized with 5% sorbitol and transferred into complete medium with uninfected erythrocytes. In vitro antimalarial activity was determined by using the malaria SYBR green I-based fluorescence (MSF) method. Briefly, 0.09 mL of cultured 1% ring-stage synchronized parasites and 2% hematocrit were transferred to individual wells of a standard 96-well microtiter plate and in vitro culture continued for 48 h, with 0.01 mL of compound at different concentration in each well. The compounds were first dissolved in DMSO and diluted with RPMI medium to 1% DMSO. The final concentration of DMSO in each well was 0.1%, which caused no effect on the parasite viability. Following 48 h, SYBR Green I solution (0.02 µL of 10,000X SYBR Green I/100 µL of buffer solution consisted of 20 mM Tris 20, pH 7.5, 5 mM EDTA, 0.008% w/v saponin and 0.08% v/v Triton X-100) was then added to each well, and fluorescence signals were measured by spectrofluorometer at ex485/em 535 nm. […] The result of each compound was normalized with control media for the overall background subtraction as 0% and untreated parasite with 0.1% DMSO as 100% control.

hematin polymerization = experiment: Inhibition of hematin polymerization (heme polymerization assay); type: biochemical;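 as to %Inh1: test concentrations in µM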;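 as to %Inh2: test concentrations in µM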;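 as to %Inh3: test concentrations in µM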
Procedure: The ability of the 5-phenoxy primaquine analogs to inhibit hematin polymerization was investigated using a protocol modified from the one described previously. […] After it was left standing for 15 min, Tween 20 (0.5 μM; Sigma) was added. […] The assay was performed in triplicate, and results were expressed as the percentage of inhibition relative to hemozoin formation in a negative control. The IC50 values were obtained from the sigmoidal dose–response curves using nonlinear regression curve fitting analyses with GraphPad Prism version 3.00 software. Each IC50 value is the result of at least three separate experiments.

[1] = test system: African green monkey kidney fibroblast (Vero cells); experiment: Cytotoxicity by sulforhodamine B (SRB) colorimetric assay; type: cell-based; details: Vero CC50 / P. falciparum 3D7 IC50
Text: (§1) A cytotoxicity test of selected analogs against African green monkey kidney fibroblast (Vero cells) was obtained from Bioassay Laboratory, BIOTEC, NSTDA, Thailand. They were maintained continuously in MEM/EBSS medium (Hyclone Laboratories Inc., South Logan, UT, USA), supplemented with 10% heated fetal bovine serum (GE Healthcare, PAA Laboratories GmbH, Pasching, Austria), 2.2 g/L Sodium bicarbonate (Emsure, Merck kGaA, Darmstadt, Germany), and 1% sodium pyruvate (Sigma). […] Then, the cells were fixed with 100 µL of 10% trichloroacetic acid (Sigma) at 4 °C for 45 min, washed, and dried at room temperature overnight. […] Finally, 200 µL of 10× Tris-base was added to each well to dissolve protein-bound dye. The OD was determined at a wavelength of 510 nm. The control media was used for overall background subtraction as 0% and untreated cells as 100% control without any cytotoxic effect. The IC50 value of each compound was determined from the dose–response curve.

[2] = as above; type: cell-based, African green monkey; details: African green monkey, Vero cells, 72 h, SRB, mean ± SD of three repeats
Text: as §1

[3] = pH 5.0, mean ± SD of three independent repeats, read-out: IC50, inhibition of hemozoin-initiated hematin polymerization
[4] = primary data, repeat 1, read-out: IC50, heme polymerization inhibition, repeat 1
[5] = primary data, repeat 2, read-out: IC50, heme polymerization inhibition, repeat 2
[6] = primary data, repeat 3, read-out: IC50, heme polymerization inhibition, repeat 3
[7] = Vero cells (kidney fibroblasts)

Structure (SMILES)	IC50 (hematin polymerization; [3]) [µM]	IC50 (hematin polymerization; [4]) [µM]	%Inh1 (hematin polymerization; conc 2, repeat 1) [%]	%Inh2 (hematin polymerization; conc 2, repeat 2) [%]	%Inh3 (hematin polymerization; conc 2, repeat 3) [%]	%Inh1 (hematin polymerization; conc 10, repeat 1) [%]	%Inh2 (hematin polymerization; conc 10, repeat 2) [%]	%Inh3 (hematin polymerization; conc 10, repeat 3) [%]	%Inh1 (hematin polymerization; conc 50, repeat 1) [%]	%Inh2 (hematin polymerization; conc 50, repeat 2) [%]	%Inh3 (hematin polymerization; conc 50, repeat 3) [%]	%Inh1 (hematin polymerization; conc 100, repeat 1) [%]	%Inh2 (hematin polymerization; conc 100, repeat 2) [%]	%Inh3 (hematin polymerization; conc 100, repeat 3) [%]	%Inh1 (hematin polymerization; conc 200, repeat 1) [%]	%Inh2 (hematin polymerization; conc 200, repeat 2) [%]	%Inh3 (hematin polymerization; conc 200, repeat 3) [%]	%Inh1 (hematin polymerization; conc 400, repeat 1) [%]	%Inh2 (hematin polymerization; conc 400, repeat 2) [%]	%Inh3 (hematin polymerization; conc 400, repeat 3) [%]	other results
COc1cc(NC(C)CCCNCCCCOc2ccc(C3CCC4(CC3)OOC3(OO4)C4CC5CC(C4)CC3C5)cc2)c2ncccc2c1Oc1ccccc1 (centres unmarked) [compound 12, N^1-(4-(4-((1r,3r,5r,7r)-Dispiro[adamantane-2,3′-[1,2,4,5]tetraoxane-6′,1″-cyclohexan]-4″-yl)phenoxy)butyl)-N^4-(6-methoxy-5-phenoxyquinolin-8-yl)pentane-1,4-diamine]	66.9 ± 3.5	64.5	12.59	16.51	8.88	19.10	21.09	14.14	48.21	49.80	51.14	82.20	73.34	64.09	90.25	95.79	87.78	106.35	95.69	97.20	IC50 (P. falciparum 3D7): 0.38 ± 0.11 µM; IC50 (hematin polymerization; [5]): 64.3 µM; IC50 (hematin polymerization; [6]): 71.8 µM; SI, selectivity index = CC50 on Vero cells / IC50 in the blood stage [1]: 45.61; CC50 at 72 h [2, 7]: 17.3 ± 0.36 µM
Cc1c2ccncc2c(C)c2c1[nH]c1ccccc12 [EPT, ellipticine, reference compound]	–	–	–	–	–	–	–	–	–	–	–	–	–	–	–	–	–	–	–	–	CC50 at 72 h [2]: 5.97 ± 0.14 µM
CCN(CC)CCCC(C)Nc1ccnc2cc(Cl)ccc12 (centres unmarked) [CQ, chloroquine, reference compound]	61.2 ± 1.3	61.3	14.98	12.22	11.21	19.21	27.67	27.09	49.80	36.78	59.78	84.80	81.20	70.36	96.36	72.73	85.74	105.70	94.31	97.41	IC50 (hematin polymerization; [5]): 59.6 µM; IC50 (hematin polymerization; [6]): 62.8 µM

Now from value to compound, other results behind:

IC50 (hematin polymerization; [3]) [µM]	IC50 (hematin polymerization; [4]) [µM]	Structure (SMILES)	%Inh1 (hematin polymerization; conc 2, repeat 1) [%]	%Inh2 (hematin polymerization; conc 2, repeat 2) [%]	%Inh3 (hematin polymerization; conc 2, repeat 3) [%]	%Inh1 (hematin polymerization; conc 10, repeat 1) [%]	%Inh2 (hematin polymerization; conc 10, repeat 2) [%]	%Inh3 (hematin polymerization; conc 10, repeat 3) [%]	%Inh1 (hematin polymerization; conc 50, repeat 1) [%]	%Inh2 (hematin polymerization; conc 50, repeat 2) [%]	%Inh3 (hematin polymerization; conc 50, repeat 3) [%]	%Inh1 (hematin polymerization; conc 100, repeat 1) [%]	%Inh2 (hematin polymerization; conc 100, repeat 2) [%]	%Inh3 (hematin polymerization; conc 100, repeat 3) [%]	%Inh1 (hematin polymerization; conc 200, repeat 1) [%]	%Inh2 (hematin polymerization; conc 200, repeat 2) [%]	%Inh3 (hematin polymerization; conc 200, repeat 3) [%]	%Inh1 (hematin polymerization; conc 400, repeat 1) [%]	%Inh2 (hematin polymerization; conc 400, repeat 2) [%]	%Inh3 (hematin polymerization; conc 400, repeat 3) [%]	other results
160 ± 2.2	162	COc1ccc(Oc2c(OC)cc(NC(C)CCCN)c3ncccc23)cc1 (centres unmarked) [7b, N^4-(6-Methoxy-5-(4-methoxyphenoxy)quinolin-8-yl)pentane-1,4-diamine]	2.65	5.23	1.85	5.02	7.53	11.84	15.24	19.36	16.35	40.12	39.30	42.63	67.25	67.23	71.49	94.57	90.75	98.34	IC50 (P. falciparum 3D7): 7.89 ± 0.5 µM; IC50 (hematin polymerization; [5]): 160 µM; IC50 (hematin polymerization; [6]): 157 µM; SI, selectivity index = CC50 on Vero cells / IC50 in the blood stage [1]: 7.05; CC50 at 72 h [2, 7]: 55.6 ± 4.34 µM
167 ± 8.6	155	COc1cc(NC(C)CCCN)c2ncccc2c1Oc1ccc(F)cc1 (centres unmarked) [7f, N^4-(5-(4-Fluorophenoxy)-6-methoxyquinolin-8-yl) pentane-1,4-diamine]	6.02	1.81	11.52	14.36	7.54	9.67	18.94	24.82	18.18	36.82	32.41	35.89	67.61	72.28	73.29	89.47	91.81	104.26	IC50 (P. falciparum 3D7): 4.97 ± 0.4 µM; IC50 (hematin polymerization; [5]): 171 µM; IC50 (hematin polymerization; [6]): 175 µM; SI, selectivity index = CC50 on Vero cells / IC50 in the blood stage [1]: 9.55; CC50 at 72 h [2, 7]: 47.5 ± 3.23 µM
